Test results published in paper PMC5575474, “Structure‐Enabled Discovery of a Stapled Peptide Inhibitor to Target the Oncogenic Transcriptional Repressor TLE1” (Chemistry (Weinheim an Der Bergstrasse, Germany), 2017).
Where two headings read alike, the source gives them in different places. No end group written: not given here.

Columns and labels:
TLE1 WDR domain = settings: cited from earlier work
Description: As discussed in more detail below, the bioactive conformation of this peptide is characterised by a compactly folded core formed by the central three amino acids. This compact core engages in extensive interactions with the WDR1 domain and positions key amino acid side chains such that they can form add ...

[1] = biological target: T1, human TLE1 443-770 (TLE1 WD40 domain) (Homo sapiens, UniProt Q04724); assay: Isothermal titration calorimetry (ITC), peptide–TLE1 binding; settings: for Kd / affinity relative to unconstrained (acyclic) peptide: cyclic vs acyclic FWRPW
T1 construct: the TLE1 WD40 domain (TLE1 residues 443–770); His6 (N, cleaved yes); made in house; host or cells: Sf9 insect cells (baculovirus, pFastBacHTb)
Description: (§1) We next investigated the binding of this macrocycle, as well as acyclic MWRPW and FWRPW peptides, to TLE1. We used two orthogonal binding assays, the thermal shift assay10 and isothermal titration calorimetry (ITC),11 to test binding of 18 and the linear peptides to the TLE1 WD40 domain (TLE1 residues 443–770).
This was initially more pronounced for FWRPW and 18, but also recognisable for the MWRPW peptide (see Figure S1 in the Supporting Information). We repeated the MWRPW titration at slightly higher protein and peptide concentrations to achieve a higher enthalpy signal, and therefore, better resolution of the titration event. Under these conditions, we also observed a clear biphasic curve (Figure 3). The biphasic curves are indicative of two binding events and we calculated the thermodynamic data for both (Table 2).
Figure 3 Top: ITC measurements of peptide–TLE1 binding interactions. Data fitting to a two‐site independent binding model are shown; integrated heats are shown in the inset. Bottom: Histograms showing ΔG, ΔH, and −TΔS. The thermodynamic values are also presented in Table 1. a) MWRPW–TLE1 binding, n=1. Experiment performed with TLE1 (40 μM) and MWRPW peptide (420 μM). b) FWRPW–TLE1 binding, n=2. Experiment performed with TLE1 (30 μM), FWRPW peptide (240 μM), and then repeated with TLE1 (24 μM), FWRPW peptide (180 μM). Histograms represent averaged values; error bars denote SD. c) 18–TLE1 binding, n=2. Experiment performed with TLE1 (30 μM), 18 (200 μM) and then repeated with TLE1 (30 μM), 18 (180 μM). Histograms represent averaged values; error bars denote SD. […]
(§2) Cloning, Expression and Purification of humanTLE1 443- 770.
(§3) The construct encoding the sequence for human TLE1 443- 770 was generated ac c or ding Laurence Pearl’s laboratory procedure. Brief ly, the C-terminal region of human TLE1 (GenBank accession number M99435) encoding amino acids 443– 770 was PCR amplif ied and cloned into pFastBacHTb (GIBCO) in-frame with the N-terminal His6 tag sequence.
(§4) Starting from this construct we generated recombinant baculovirus using the Bac-to-Bac® Baculovirus Expression System (Thermo Fisher Scientif ic). For protein production, Sf9 insect cells were grown in sf -900 II SFM media (Thermo Fisher Scientific) to a cell density of around 2 × 10^6 cells per milliliter and inf ected with 20 μL of virus per 107cells. Inf ected cell cultures were harvested 3 days post-inf ection.
(§5) Cell pellets were resuspended in 6 volumes of lysis buffer (50 mM Tris pH 7.5, 500 mM NaCl, 1 mM MgCl) containing 1× complete EDTA-free protease inhibitors and 25 U/mL benzonase nuclease. The resuspended cells were lysed by sonication. Following […]
(§6) centrifugation, the supernatant was purified over 2x HiTrap talon crude columns (Cobalt - IMAC, GE). Columns were washed with 10m M Imidazole and then the protein was eluted in […]
(§7) The Talon eluate was incubated overnight at 4 °C with TEV protease to cleave the 6xHis tag and then re- loaded on talon column: the unbound wash contains the cleaved hTLE1 443- […]
(§8) The protein was subsequently purif ied over a Superdex 75 16/60 column that was equilibrated in 50 mM Hepes pH 7.5 + 250 mM naCl + 1 mM TCEP.
(§9) Selected f ractions were pooled, concentrated to 8 mg/mL and stored at - 80 °C. The protein was stable in these conditions f or up to three months.
(§10) Protein concentration was measured using an ND-1000 UV spectrophotometer (Nanodrop Technologies Inc., DE., USA). […]
1-2 days at 20 ◦C. Some crystals were transf erred to hanging drop (vapour diffusion) plates with the wells containing precipitant solution (PEG 8000 (22%), 100mM Na cacodylate, 100 mM Ca(OAc)2) and the drops containing the same precipitant solution supplemented with 1.0 or 2.5 mM peptide and a resultant final DMSO concentration of 1.0% or 2.5%, respectively. These crystals were soaked for around 5 h at 20 °C. Apo or peptide- s oak ed crystals were harvested, briefly transferred to cryprotectant (either paratone- N or a buffer […]

[2] = biological target: T1, human TLE1 443-770 (TLE1 WD40 domain); assay: Thermal shift assay (TSA, ΔTm); assay type: binding; settings: 6 μM human TLE1 443-770, 25 mM Tris pH7.5, 125 mM NaCl, 1 mM DTT, 0.0002% Tween20, 3x SYPRO Orange, 10 °C to 95 °C, 0.5 °/min, mean of triplicate
Experimental: as §1
Figure 2 ΔT m plot of peptide–hTLE1 443–770 interactions in thermal shift experiments. All measurements were carried out in triplicate and the points are reported as mean+standard deviation (SD). […]
as §2, §3, §4, §5, §6, §7, §8, §9, §10
1-2 days at 20 ◦C. Some crystals were transf erred to hanging drop (vapour diffusion) plates with the wells containing precipitant solution (PEG 8000 (22%), 100mM Na cacodylate, 100 mM Ca(OAc)2) and the drops containing the same precipitant solution supplemented with 1.0 or 2.5 mM peptide and a resultant final DMSO concentration of 1.0% or 2.5%, respectively. These crystals were soaked for around 5 h at 20 °C. Apo or peptide- s oak ed crystals were harvested, briefly transferred to cryprotectant (either paratone- N or a buffer containing ethylene glycol (40%), PEG 8000 […], 100 mM sodium cacodylate, 100 m M Ca(OAc)2) and f lash frozen in liquid nitrogen.
X-Ray data we r e collected at the Diamond Light Source, Oxford, UK on beamline I04.
Crystals belonged to the space group P2 1 and diffracted to between 1.6 and 2.9 Å. Dat a we r e integrated and merged using MOSFLM[4a,b] and AI MLESS.[4c] The structures were solved by molecular replacement using PHASER, [5] with either 2CE9 or our refined apo structure as the molecular replacement model with ligands and water removed. T he structures were manually rebuilt in COOT [6] and refined with BUSTER[7] in iterative cycles.
Ligand restraints f or the constrained peptide were generated with Grade[8] and Mogul.[9] T he quality of the structures was assessed with MOLPROBITY.[10]
Linear, unmodified peptides FW RPW and MWRPW were purchased from Cambridge Peptides as lyophilized powder. The peptides were then reconstituted in 1:1 mixture of DMSO and H2O as 10 mM stocks and stored at -80 °C. […]

[3] = biological target: T1, human TLE1 443-770 (TLE1 WD40 domain); assay: Isothermal titration calorimetry (ITC), peptide–TLE1 binding; settings: one-site independent binding model; TLE1 30 μM, peptide 350 μM; 25 °C, 50 mM Hepes pH7.5, 250 mM NaCl; mean ± SD, n = 2 (Table S1)
[4] = first binding event, two-site independent binding model, 25 °C, pH7.5, MWRPW n=1, FWRPW and 18 n=2, mean ± SD
[5] = second binding event, two-site independent binding model, 25 °C, pH7.5, MWRPW n=1, FWRPW and 18 n=2, mean ± SD

T1 sequence (Q04724 443-770): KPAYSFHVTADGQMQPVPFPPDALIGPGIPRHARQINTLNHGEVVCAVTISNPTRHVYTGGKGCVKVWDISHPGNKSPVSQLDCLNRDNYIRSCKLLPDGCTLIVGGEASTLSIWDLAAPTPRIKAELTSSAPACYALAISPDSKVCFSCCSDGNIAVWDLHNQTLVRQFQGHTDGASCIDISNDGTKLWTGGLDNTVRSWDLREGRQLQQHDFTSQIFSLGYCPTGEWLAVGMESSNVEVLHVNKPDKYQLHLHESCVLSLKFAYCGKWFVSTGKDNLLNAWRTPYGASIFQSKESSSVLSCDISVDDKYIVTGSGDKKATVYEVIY

SMWRPW [acyclic design template (pdb code 2CE9)]
Kd (TLE1 WDR domain): 1 µM

FWRPW [linear, unmodified peptide purchased from Cambridge Peptides; acyclic counterpart of 18]
N1 ([1]; first binding event, two-site independent binding model, 25 °C, 50 mM Hepes pH7.5, 250 mM NaCl, 1 mM TCEP, 0.05% Tween 20, MWRPW n=1 (TLE1 40 μM, peptide 420 μM), FWRPW n=2 (TLE1 30/24 μM, peptide 240/180 μM), 18 n=2 (TLE1 30 μM, peptide 200/180 μM)): 0.18±0.002 | ΔH1 [1, 4]: -85.8 ± 15.5 kJ/mol | −TΔS1 [1, 4]: 38.5 ± 15.9 kJ/mol | fold more potent binding than MWRPW ([1]; second binding event (Kd2)): ~10 fold | N2 ([1]; second binding event, two-site independent binding model, 25 °C, 50 mM Hepes pH7.5, 250 mM NaCl, 1 mM TCEP, 0.05% Tween 20, MWRPW n=1, FWRPW and 18 n=2): 0.7±0.004 | ΔH2 [1, 5]: -61.1 ± 0 kJ/mol | −TΔS2 [1, 5]: 19.2 ± 0.84 kJ/mol | ΔTm ([2]; peptide 100 μM): 9.4 °C | ΔTm ([2]; peptide 200 μM): 10.1 °C

N=C(N)NCCC[C@@H]1NC(=O)[C@@H](NC(=O)[C@@H](N)Cc2ccccc2)Cc2cn(c3ccccc23)CCCC[C@@]2(C(=O)N[C@@H](Cc3c[nH]c4ccccc34)C(=O)O)CCCN2C1=O [compound 18]
Kd / affinity relative to unconstrained (acyclic) peptide [1]: approximately six‐fold lower affinity than that of the acyclic peptide | Kd / affinity relative to unconstrained (acyclic) peptide ([1]; listed as cycFWRPW): approximately five‐fold higher | Kd ([1]; second binding event, two-site independent binding model, 25 °C, 50 mM Hepes pH7.5, 250 mM NaCl, 1 mM TCEP, 0.05% Tween 20, MWRPW n=1 (TLE1 40 μM, peptide 420 μM), FWRPW n=2 (TLE1 30/24 μM, peptide 240/180 μM), 18 n=2 (TLE1 30 μM, peptide 200/180 μM), read-out: Kd2): 0.522 ± 0.0396 µM | ΔTm ([2]; peptide 100 μM): 8.4 °C | ΔTm ([2]; peptide 200 μM): 7.5 °C

MWRPW [MWRPW, reference compound]
ΔTm ([2]; peptide 100 μM): 6.3 °C | ΔTm ([2]; peptide 200 μM): 6.9 °C | Kd [3]: 0.704 ± 0.014 µM
